{"source": "patent US7166303B2", "about": "“Anesthetic formulations” (Maelor Pharmaceuticals Limited, priority 2000, dated 2007)", "key": {"[1]": {"conditions": "84% water/16% propylene glycol, ambient temperature"}, "[2]": {"assay": "physchem", "conditions": "water, thermodynamic from solid", "method": "Analyses were performed using the Perkin Elmer Lambda 5 UV/Vis Spectrophotometer.\nTwo sets of standards were prepared by serial dilution of: • 1. 10% poloxamer P407/1% Propofol solution in water. • 2. 1% Propofol solution in ethanol (EtOH).\nDilutions were performed with water and EtOH respectively. The standards were further diluted one hundred fold prior to measurement of their UV absorption spectra recorded."}}, "data": [{"molecule": "CC(C)c1cccc(C(C)C)c1O", "note": "[Propofol, 2,6-bis(1-methylethyl)phenol]", "values": [{"measurement": "increase of solubility of Propofol over water alone", "setting": "[1]", "result": "approximately 50%"}, {"measurement": "solubility thermodynamic", "setting": "[2]", "result": "~1000", "unit": "µM"}]}]}
